From patent US20200039970A1, “HYDANTOIN MODULATORS OF KV3 CHANNELS” (Autifony Therapeutics Limited, priority 2016, published 2020)

Assays:
[1] = molecular target: T1, human Kv3.1 channels (hKv3.1) (Homo sapiens, UniProt P48547); assay: IonWorks Quattro whole-cell current potentiation assay, hKv3.1 (Biological Example 1); type: cell-based; conditions: recombinant cell assay, -15 mV voltage step; positive modulator = at least 20% of effect of 50 microM reference compound
T1 construct: expressed in transfected cells; host or cells: CHO/Gam/E1A-clone22 (CGE22) cells, CHO-K1-derived, transduced with BacMam pFBM/human Kv3.1
T1 sequence (P48547 1-511): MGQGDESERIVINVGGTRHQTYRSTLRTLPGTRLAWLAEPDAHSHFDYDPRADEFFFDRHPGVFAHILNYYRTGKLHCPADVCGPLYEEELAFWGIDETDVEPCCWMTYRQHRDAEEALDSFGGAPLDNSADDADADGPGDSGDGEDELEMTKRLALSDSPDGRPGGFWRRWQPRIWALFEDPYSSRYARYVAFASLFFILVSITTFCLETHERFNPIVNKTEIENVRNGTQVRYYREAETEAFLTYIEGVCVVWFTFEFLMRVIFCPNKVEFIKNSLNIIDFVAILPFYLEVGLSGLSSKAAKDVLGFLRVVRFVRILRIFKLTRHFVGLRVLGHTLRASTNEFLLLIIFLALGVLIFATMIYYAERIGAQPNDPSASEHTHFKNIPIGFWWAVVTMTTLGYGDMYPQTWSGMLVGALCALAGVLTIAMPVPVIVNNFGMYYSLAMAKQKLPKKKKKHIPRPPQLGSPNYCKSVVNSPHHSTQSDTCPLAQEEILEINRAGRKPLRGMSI
Source text: (§1) The ability of the compound of the invention to modulate the voltage-gated potassium channel subtypes Kv3.2 or Kv3.1 may be determined using the following assay. Analogous methods may be used to investigate the ability of the compound of the invention to modulate other channel subtypes, including Kv3.3 and Kv3.4.
To assess compound effects on human Kv3.1 channels (hKv3.1), CHO/Gam/E1A-clone22 alias CGE22 cells were transduced using a hKv3.1 BacMam reagent. This cell line was designed to be an improved CHO-K1-based host for enhanced recombinant protein expression as compared to wild type CHO-K1.
The cell line was generated following the transduction of CHO-K1 cells with a BacMam virus expressing the Adenovirus-Gam1 protein and selection with Geneticin-G418, to generate a stable cell line, CHO/Gam-A3. […]
(§2) Experiments were conducted at room temperature using IonWorks Quattro™ planar array electrophysiology technology (Molecular Devices Corp.) with PatchPlate™ PPC. […] Planar electrode hole resistances(Rp) were determined by applying a 10 mV voltage step across each well. […] Test pulses protocol may be performed in the absence (pre-read) and presence (post-read) of the test compound. Pre- and post-reads may be separated by the compound addition followed by a 3 minute incubation. […]

[2] = molecular target: T2, human Kv3.2 channels (hKv3.2) (Homo sapiens, UniProt Q96PR1); assay: IonWorks Quattro whole-cell current potentiation assay, hKv3.2 (Biological Example 1); type: cell-based; conditions: recombinant cell assay, -15 mV voltage step; positive modulator = at least 20% of effect of 50 microM reference compound
T2 construct: expressed in transfected cells
T2 sequence (Q96PR1 1-638): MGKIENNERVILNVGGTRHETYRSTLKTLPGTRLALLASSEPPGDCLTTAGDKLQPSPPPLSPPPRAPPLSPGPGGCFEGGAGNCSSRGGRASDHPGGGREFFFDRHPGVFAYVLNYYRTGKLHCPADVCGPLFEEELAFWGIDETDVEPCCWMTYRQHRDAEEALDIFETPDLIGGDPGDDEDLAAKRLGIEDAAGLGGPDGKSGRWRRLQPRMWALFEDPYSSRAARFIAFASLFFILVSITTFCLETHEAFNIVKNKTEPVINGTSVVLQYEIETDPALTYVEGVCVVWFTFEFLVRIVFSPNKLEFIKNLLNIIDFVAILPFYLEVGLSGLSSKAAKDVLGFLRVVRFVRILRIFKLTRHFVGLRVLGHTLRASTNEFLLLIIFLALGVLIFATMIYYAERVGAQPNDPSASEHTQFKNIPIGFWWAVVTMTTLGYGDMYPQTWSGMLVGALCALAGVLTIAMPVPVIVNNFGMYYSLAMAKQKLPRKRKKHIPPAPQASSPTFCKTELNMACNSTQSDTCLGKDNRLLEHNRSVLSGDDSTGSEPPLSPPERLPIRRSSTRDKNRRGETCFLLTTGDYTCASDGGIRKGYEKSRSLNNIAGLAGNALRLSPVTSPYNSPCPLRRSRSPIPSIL
Source text: as §1
To assess compound effects on human Kv3.2 channels (hKv3.2), a stable cell line expressing hKv3.2 was created by transfecting Chinese Hamster Ovary (CHO)-K1 cells with a pClH5-hKv3.2 vector. Cells were cultured in DMEM/F12 medium supplemented by 10% Foetal Bovine Serum, 1× non-essential amino acids (Invitrogen) and 500 ug/ml of Hygromycin-B (Invitrogen). Cells were grown and maintained at 37° C. in a humidified environment containing 5% CO2 in air.
The day of the experiment, cells were removed from the incubator and the culture medium removed. […]
as §2

[3] = Determination of in vivo pharmacokinetic parameters (Biological Example 3); set-up: species or system rat; conditions: for Tmax: Median
Experimental: […] After oral administration, blood samples are collected under deep Isofluorane anesthesia from the portal vein and heart of each rat (1 rat per time point). After intravenous administration, serial blood samples are collected from the lateral tail vein of each rat. A further group of rats (n=1 per test compound) receive a single intravenous administration of the PgP transport inhibitor, Elacridar (3 mg/kg) shortly before the oral administration of the test compound at 1 mg/kg, as above. Blood and brain samples ar collected at a single timepoint of 0.5 h after dose administration for these animals. In all cases, blood samples are collected into potassium EDTA tubes.
Blood and brain samples can be assayed for test compound concentration using a method based on protein precipitation with acetonitrile followed by HPLC/MS-MS analysis with an optimized analytical method.
The concentrations of test compound in blood (expressed as ng/ml) and brain (expressed as ng/g) at the different time points following either oral or intravenous dosing are analysed using a non-compartmental pharmacokinetic model using WinNonLin Professional version 4.1. The following parameters are derived:
Intravenous dosing: Maximum concentration over time (Cmax), integrated concentration over time (AUC), clearance (Clb), volume of distribution (Vss) and half-life (t1/2).
Oral dosing: Cmax, time of maximum concentration (Tmax), AUC, bioavailability (F %), fraction absorbed (Fa %), blood to brain ratio (AUC BB), and Fold-change in AUC BB in the presence of Elacridar.

[4] = male, rat, whole blood, Blood, IV 1 mg/kg, Mean
[5] = male, rat, whole blood, Blood, PO 3 mg/kg, Mean

- modulation of Kv3.1 channels (whole-cell currents) [1]: positive modulators
- modulation of Kv3.2 channels (whole-cell currents) [2]: positive modulators
- Bioavailability (%) Using AUCinf ([3]; Blood, PO 3 mg/kg vs IV 1 mg/kg): 138%
- availability ([3]; in vivo pharmacokinetics): good availability
- AUC(0-inf) [3, 4]: 0.353 µg·h/mL
- Cmax [3, 4]: 0.904 µg/mL
- clearance [3, 4]: 2.86 L/h/kg
- half-life [3, 4]: 15.6 min
- Vd ([3]; male, rat, whole blood, Blood, IV 1 mg/kg, Mean, read-out: Vdss): 1 L/kg
- Tmax ([3]; male, rat, whole blood, Blood, IV 1 mg/kg): 4.98 min
- AUC(0-inf) [3, 5]: 1.44 µg·h/mL
- Cmax [3, 5]: 1.66 µg/mL
- half-life [3, 5]: 24.6 min
- Tmax ([3]; male, rat, whole blood, Blood, PO 3 mg/kg): 15 min
SMILES: CC[C@H]1NC(=O)N(c2ccc(Oc3ccc(C)c4c3C3(CC3)CO4)cn2)C1=O [compound of the invention]
